Columns and labels:
Human Th2 cells = assay: Apoptosis challenge test (Annexin V-PE/PI flow cytometry); format: cell-based; details: for IC50: Homo sapiens, 100 nM PGD2, absence of IL-2, 16 hrs, read-out: IC50 to the rescuing function of PGD2
Method: Human Th2 cells were treated with 50 U/ml IL-2 or various concentrations of PGD2 in the absence of IL-2 for 16 hrs. The cells were stained with Annexin V-PE/PI and then analysed by FACSArray flow cytometer.
Human Th2 cells were treated in the absence of IL-2 with a medium containing 100 nM PGD2 and various concentrations of CRTH2 antagonistic compounds (Compounds 1, 2, 3, 4 and 5) for 16 hrs. The cells were stained with Annexin V-PE/PI and then analysed by FACSArray flow cytometer.

serum IgE = assay: Measurement of serum IgE in mild to moderate asthmatics; format: in vivo, human
From the text: The effect of the CRTH2 antagonist Compound 1 compared to placebo was studied in mild to moderate asthmatics with an FEV1 of 60-80% of predicted and requiring only short acting inhaled β2-adrenergic agonists for symptomatic control.
Blood was collected for measurement of serum IgE at the beginning of the study and after 4 weeks of dosing with Compound 1 or placebo. Total serum IgE was quantified using fluorescent immunoassay using the Phadia CAP system.

[1] = tested on: human subjects with allergic rhinitis; assay: Vienna Challenge Chamber study (allergen challenge, symptom scores); format: in vivo; details: for reduction in total nasal symptom score compared to placebo / reduction in total eye symptom score compared to placebo: oral, both patient groups combined; for reduction in total nasal symptom score compared to placebo: FIG. 1A; for reduction in total eye symptom score compared to placebo: FIG. 1B
From the text: The study was a randomised, double blind, placebo controlled, two way crossover evaluation of Compound 1, given orally for eight days. There was a screening period of one week and a washout period of three weeks between the two treatment periods. There was a follow up one week after the last dose of study drug. The group of patients who received the study drug for the first treatment period and placebo for the second was designated group A, while the group of patients who received placebo for the first treatment period and the study drug for the second treatment period was designated group B.
The subjects underwent a complete screening assessment to determine a baseline response to allergens. This screening assessment took place one week prior to the start of dosing. • Subjects commenced dosing with Compound 1 or placebo on Day 1 (visit 2 or visit 5) of each treatment period of the study. […] Subjects took each dose (2 capsules in the morning and 2 capsules in the evening) as soon as they had finished breakfast and their evening meal respectively.
Subjects reported back to the clinic on Day 2 of each treatment period for a 6 hour allergen challenge. The following measurements were obtained: • Total nasal symptom score (TNSS) (obstruction, rhinorrhoea, itch, sneeze) with each symptom scored on a categorical scale from 0 to 3 pre-challenge, every 15 mins from 0 to 6 h post-start of challenge • Eye symptom score (watery eyes, itchy eyes, red eyes) with each symptom scored on a categorical scale from 0 to 3 pre-challenge, every 15 mins from 0 to 6 h post-start of challenge • Other symptoms (cough, itchy throat, itchy ears) with each symptom scored on a categorical scale from 0 to 3 pre-challenge and every 15 mins from 0 to 6 h post-start of challenge
Subjects reported back to the clinic on Day 8 of each treatment period for a 6 hour allergen challenge and the measurements obtained on Day 2 were repeated.
A final follow-up visit was conducted one after the last dose of test article in Treatment Period 2.

CRTH2 receptor = molecular target: T1, CRTH2 receptor (Homo sapiens, UniProt Q9Y5Y4); assay: Calcium mobilisation assay in CHO/CRTH2 cells; format: cell-based; details: n=3, read-out: EC50, increase in intracellular Ca2+ mobilisation
T1 construct: expressed in transfected cells; host or cells: Chinese Hamster Ovary (CHO) cells
T1 sequence (Q9Y5Y4 1-395): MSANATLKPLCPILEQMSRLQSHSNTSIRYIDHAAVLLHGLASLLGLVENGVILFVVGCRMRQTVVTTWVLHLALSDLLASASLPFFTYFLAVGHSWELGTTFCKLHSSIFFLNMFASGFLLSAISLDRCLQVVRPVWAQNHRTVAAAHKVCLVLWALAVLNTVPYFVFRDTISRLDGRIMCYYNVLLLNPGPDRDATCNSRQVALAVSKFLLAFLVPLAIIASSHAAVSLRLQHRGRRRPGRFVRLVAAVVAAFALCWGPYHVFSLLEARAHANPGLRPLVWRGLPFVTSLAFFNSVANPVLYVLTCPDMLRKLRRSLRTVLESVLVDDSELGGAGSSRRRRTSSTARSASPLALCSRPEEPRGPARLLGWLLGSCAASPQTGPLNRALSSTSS
Method: Chinese Hamster Ovary cells were transfected with CRTH2 receptors (CHO/CRTH2) and were maintained in culture in a humidified atmosphere at 37° C. (5% CO2) in Minimum Essential Medium (MEM) supplemented with 10% foetal bovine serum, 2 mM glutamine, and 1 mg ml^−1 active G418. The cells were passaged every 2-3 days. For radioligand binding assay, cells were prepared in triple-layer flasks or in 175 cm^2 square flasks (for membrane preparation). For calcium mobilisation assay, cells were grown in a 96 well plate 24 h prior to the assay at a density of 80,000 cells per well.
Cells were seeded onto poly-D-lysine coated 96-well plates at a density of 80,000 cells per well and incubated at 37° C. overnight to allow the cells to adhere. Cells were washed twice with HBSS and incubated for 1 h at 37° C. in 100 μl HBSS and 100 μl calcium-3-dye (Molecular Devices), supplemented with 4 mM probenecid. Changes in fluorescence were monitored over a 50 s time course with agonist addition at 17 s using a Flexstation (Molecular Devices).

Cc1c(Cc2cc3ccccc3cc2S(C)(=O)=O)c2cc(F)ccc2n1CC(=O)O [Compound 3, {5-Fluoro-3-[(3-methanesulfonylnaphthalen-2-yl)methyl]-2-methylindol-1-yl}-acetic acid] showed an IC50 (Human Th2 cells) of under 100 nM.
For Cc1c(Cc2ccc3ccccc3n2)c2cc(F)ccc2n1CC(=O)O [Compound 1, (5-Fluoro-2-methyl-3-quinolin-2-ylmethyl-indol-1-yl)-acetic acid], the IC50 (Human Th2 cells) was under 100 nM, the “median reduction in IgE at endpoint” value (serum IgE; after 4 weeks of dosing, p=0.033 vs placebo, Wilcoxon test) was −17.0 IU/mL and the “reduction in serum IgE” value (serum IgE; after treatment for 4 weeks, FIG. 3) was 41%. For the same compound, the “duration of effect on nasal symptom score after the last treatment” value ([1]; Group A, on placebo after 8 days of drug and three week washout) was “more than 4 weeks”, the “reduction in total nasal symptom score compared to placebo” value ([1]; after 2 days of dosing) was 23% and the “reduction in total eye symptom score compared to placebo” value ([1]; after 2 days of dosing) was 45%. The “reduction in total nasal symptom score compared to placebo” value ([1]; after 8 days of dosing) was 37%, the “reduction in total eye symptom score compared to placebo” value ([1]; after 8 days of dosing) was 61% and the “reduction in Total Nasal Symptom Score (0-6 hr)” value ([1]; remaining 22 days after the last dose) was 36%. The “reduction in Total Nasal Symptom Score (0-6 hr)” value ([1]; remaining 28 days after the last dose) was 38%.
With Cc1c(Cc2cccnc2S(=O)(=O)c2ccccc2)c2cc(F)ccc2n1CC(=O)O [Compound 4, (3-{[2-(Benzenesulfonyl)pyridin-3-yl]methyl}-5-fluoro-2-methylindol-1-yl)-acetic acid] the IC50 (Human Th2 cells) was under 100 nM.
Cc1c(S(=O)(=O)c2ccc(Cl)cc2)c2cc(F)ccc2n1CC(=O)O [[5-Fluoro-3-(4-chloro-benzenesulfonyl)-2-methyl-indol-1-yl]-acetic acid, reference compound] gave an IC50 (Human Th2 cells) of 204 ± 160 nM.
In the case of Cc1c(Cc2ccccc2S(=O)(=O)c2ccccc2)c2cc(F)ccc2n1CC(=O)O [Compound 2, (3-{[2-(Benzenesulfonyl)phenyl]methyl}-5-fluoro-2-methylindol-1-yl)-acetic acid], the IC50 (Human Th2 cells) is reported as under 100 nM.
CCCCC[C@H](O)/C=C/[C@H]1C(=O)C[C@H](O)[C@@H]1C/C=C\CCCC(=O)O [PGD2, prostaglandin D2, reference compound] was tested, and the “effect on apoptosis of Th2 cells” value (Human Th2 cells; absence of IL-2, 16 hrs) was “anti-apoptotic effect” and the EC50 (CRTH2 receptor) was 2.4 ± 0.5 nM.

Reference: patent US20110124683A1, “Use of CRTH2 Antagonist Compounds” (Oxagen Limited, priority 2007, published 2011)
